According to ChEMBL document CHEMBL1201862, “PubChem BioAssay data set” (2004):
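Method: 48-hour compound exposure of cells in 96-well plates, five concentrations, linear interpolation of endpoints. GI50 marks 50% less growth.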 Activity calls are given as the source filed them. Cut-off read from the data, not from the text of the source: active = GI50 up to about 1.1 µM and inactive = higher.

What was measured:
Experiment in all cases: NCI-60 cell line screen, 48 h
BT-549 = system: BT-549
786-0 = system: 786-0
SW-620 = system: SW-620
SK-MEL-28 = system: SK-MEL-28
MDA-MB-435 = system: MDA-MB-435
OVCAR-5 = system: OVCAR-5
CCRF-CEM = system: CCRF-CEM
NCI-H226 = system: NCI-H226
SF-539 = system: SF-539
SK-OV-3 = system: SK-OV-3
MCF7 = system: MCF7
UACC-257 = system: UACC-257
HOP-62 = system: HOP-62
SF-295 = system: SF-295
DU-145 = system: DU-145
IGROV-1 = system: IGROV-1
OVCAR-3 = system: OVCAR-3
RPMI-8226 = system: RPMI-8226
U-251 = system: U-251
SNB-19 = system: SNB-19
TK-10 = system: TK-10
SK-MEL-2 = system: SK-MEL-2
HCT-15 = system: HCT-15
MOLT-4 = system: MOLT-4
MDA-MB-231 = system: MDA-MB-231
HOP-92 = system: HOP-92
HT-29 = system: HT-29
OVCAR-8 = system: OVCAR-8
HCT-116 = system: HCT-116
T47D = system: T47D
NCI-H460 = system: NCI-H460
Hs-578T = system: Hs-578T
A498 = system: A498
EKVX = system: EKVX
NCI-H23 = system: NCI-H23
KM12 = system: KM12
RXF 393 = system: RXF 393
HL-60 = system: HL-60
M14 = system: M14
SK-MEL-5 = system: SK-MEL-5
UO-31 = system: UO-31
SN12C = system: SN12C
SF-268 = system: SF-268
ACHN = system: ACHN
K562 = system: K562
UACC-62 = system: UACC-62
NCI/ADR-RES = system: NCI/ADR-RES
PC-3 = system: PC-3
LOX IMVI = system: LOX IMVI
CAKI-1 = system: CAKI-1
COLO 205 = system: COLO 205
SNB-75 = system: SNB-75
MDA-N = system: MDA-N
OVCAR-4 = system: OVCAR-4
NCI-H522 = system: NCI-H522
Malme-3M = system: Malme-3M
HCC 2998 = system: HCC 2998
A549 = system: A549
SR = system: SR

For `O=C(O)C1CC(c2ccccc2)=NN1c1ccccc1` (stereo unspecified), the GI50 (BT-549) was 66.5 µM (inactive), the GI50 (786-0) was 56.9 µM (inactive) and the GI50 (SW-620) was 92.3 µM (inactive). The GI50 (SK-MEL-28) was > 100 µM (inactive), the GI50 (MDA-MB-435) was 63.4 µM (inactive) and the GI50 (OVCAR-5) was > 100 µM (inactive). The GI50 (CCRF-CEM) was 48.4 µM (inactive), the GI50 (NCI-H226) was 36.8 µM (inactive) and the GI50 (SF-539) was 93.5 µM (inactive). For the same molecule, the GI50 (SK-OV-3) was > 100 µM (inactive), the GI50 (MCF7) was 48 µM (inactive) and the GI50 (UACC-257) was 51.9 µM (inactive). The GI50 (HOP-62) was > 100 µM (inactive), the GI50 (SF-295) was 64.6 µM (inactive) and the GI50 (DU-145) was 96.8 µM (inactive). For the same molecule, the GI50 (IGROV-1) was > 100 µM (inactive), the GI50 (OVCAR-3) was 42 µM (inactive) and the GI50 (RPMI-8226) was 40.3 µM (inactive). The GI50 (U-251) was 62.1 µM (inactive), the GI50 (SNB-19) was > 100 µM (inactive) and the GI50 (TK-10) was 64 µM (inactive). For the same molecule, the GI50 (SK-MEL-2) was 69.5 µM (inactive), the GI50 (HCT-15) was 34 µM and the GI50 (MOLT-4) was 31.7 µM (inactive). For the same molecule, the GI50 (MDA-MB-231) was > 100 µM (inactive), the GI50 (HOP-92) was 69.3 µM (inactive) and the GI50 (HT-29) was 34.2 µM (inactive). The GI50 (OVCAR-8) was > 100 µM (inactive), the GI50 (HCT-116) was 66.7 µM (inactive) and the GI50 (T47D) was 52 µM (inactive). The GI50 (NCI-H460) was 54.7 µM (inactive), the GI50 (Hs-578T) was 25.4 µM (inactive) and the GI50 (A498) was 51.4 µM (inactive). For the same molecule, the GI50 (EKVX) was 24 µM (inactive), the GI50 (NCI-H23) was 52.6 µM (inactive) and the GI50 (KM12) was 42.9 µM (inactive). For the same molecule, the GI50 (RXF 393) was 87.1 µM (inactive), the GI50 (HL-60) was 89.7 µM (inactive) and the GI50 (M14) was 75 µM (inactive). The GI50 (SK-MEL-5) was 34.4 µM (inactive), the GI50 (UO-31) was 39.9 µM (inactive) and the GI50 (SN12C) was > 100 µM (inactive). For the same molecule, the GI50 (SF-268) was 81.1 µM (inactive), the GI50 (ACHN) was 91.6 µM (inactive) and the GI50 (K562) was 47.5 µM (inactive). For the same molecule, the GI50 (UACC-62) was > 100 µM (inactive), the GI50 (NCI/ADR-RES) was 48.5 µM (inactive) and the GI50 (PC-3) was 41 µM (inactive). The GI50 (LOX IMVI) was 41.9 µM (inactive), the GI50 (CAKI-1) was 43.6 µM (inactive) and the GI50 (COLO 205) was 50.9 µM (inactive). The GI50 (SNB-75) was > 100 µM (inactive), the GI50 (MDA-N) was 99.5 µM (inactive) and the GI50 (OVCAR-4) was 67.6 µM (inactive). The GI50 (NCI-H522) was 27.4 µM (inactive), the GI50 (Malme-3M) was 32.5 µM (inactive) and the GI50 (HCC 2998) was 24.1 µM (inactive). For the same molecule, the GI50 (A549) was 70 µM (inactive).
With `Nc1nc2c(C(=O)NCc3cccs3)nnn2c2cccc(Cl)c12` the GI50 (SR) was 52.2 µM (inactive), the GI50 (BT-549) was > 100 µM (inactive) and the GI50 (786-0) was > 100 µM (inactive). The GI50 (SW-620) was 91.2 µM (inactive), the GI50 (SK-MEL-28) was 92.3 µM (inactive) and the GI50 (MDA-MB-435) was > 100 µM (inactive). For the same molecule, the GI50 (OVCAR-5) was 45.3 µM (inactive), the GI50 (CCRF-CEM) was 22.3 µM (inactive) and the GI50 (NCI-H226) was 92 µM (inactive). For the same molecule, the GI50 (SF-539) was 77.3 µM (inactive), the GI50 (SK-OV-3) was > 100 µM (inactive) and the GI50 (MCF7) was 53.8 µM (inactive). The GI50 (UACC-257) was > 100 µM (inactive), the GI50 (HOP-62) was > 100 µM (inactive) and the GI50 (SF-295) was > 100 µM (inactive). For the same molecule, the GI50 (DU-145) was > 100 µM (inactive), the GI50 (IGROV-1) was > 100 µM (inactive) and the GI50 (OVCAR-3) was > 100 µM (inactive). The GI50 (RPMI-8226) was 39.7 µM (inactive), the GI50 (U-251) was > 100 µM (inactive) and the GI50 (SNB-19) was > 100 µM (inactive). The GI50 (TK-10) was > 100 µM (inactive), the GI50 (SK-MEL-2) was > 100 µM (inactive) and the GI50 (HCT-15) was > 100 µM. For the same molecule, the GI50 (MOLT-4) was 89.5 µM (inactive), the GI50 (MDA-MB-231) was 60.1 µM (inactive) and the GI50 (HOP-92) was 79.3 µM (inactive). The GI50 (HT-29) was > 100 µM (inactive), the GI50 (OVCAR-8) was 84.7 µM (inactive) and the GI50 (HCT-116) was > 100 µM (inactive). The GI50 (T47D) was 19.5 µM (inactive), the GI50 (NCI-H460) was > 100 µM (inactive) and the GI50 (Hs-578T) was > 100 µM (inactive). The GI50 (A498) was > 100 µM (inactive), the GI50 (EKVX) was 57.8 µM (inactive) and the GI50 (NCI-H23) was 87.3 µM (inactive). The GI50 (KM12) was > 100 µM (inactive), the GI50 (RXF 393) was 59.4 µM (inactive) and the GI50 (HL-60) was > 100 µM (inactive). For the same molecule, the GI50 (M14) was > 100 µM (inactive), the GI50 (SK-MEL-5) was 92.3 µM (inactive) and the GI50 (UO-31) was 87.5 µM (inactive). The GI50 (SN12C) was > 100 µM (inactive), the GI50 (SF-268) was > 100 µM (inactive) and the GI50 (ACHN) was > 100 µM (inactive). For the same molecule, the GI50 (K562) was > 100 µM (inactive), the GI50 (UACC-62) was > 100 µM (inactive) and the GI50 (NCI/ADR-RES) was > 100 µM (inactive). The GI50 (PC-3) was 54.5 µM (inactive), the GI50 (LOX IMVI) was > 100 µM (inactive) and the GI50 (CAKI-1) was > 100 µM (inactive). The GI50 (COLO 205) was > 100 µM (inactive), the GI50 (MDA-N) was > 100 µM (inactive) and the GI50 (OVCAR-4) was > 100 µM (inactive). For the same molecule, the GI50 (NCI-H522) was > 100 µM (inactive), the GI50 (Malme-3M) was > 100 µM (inactive) and the GI50 (HCC 2998) was 30.5 µM (inactive). For the same molecule, the GI50 (A549) was > 100 µM (inactive).
